IC50 data for seven compounds are collected here from patent US20250019387A1 (Frontier Medicines Corporation, priority 0001, published 2025).

The structures appear in SMILES notation. A value given as a limit tells only on which side of the number the result lay.

For this assay, the target named is KRAS G12C and cRAF (Ras-binding domain) interaction (Homo sapiens (Human), UniProt P01116, C118S/C51S/C80L/G12C). Briefly: Inhibition of KRAS G12C and cRAF binding (AlphaScreen). To be noted: GMPPNP-loaded KRAS G12C, 19-20 hours incubation with compound; read-out: IC50 (Inhibition of KRAS G12C and cRAF Binding). Summed up: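 Compounds (DMSO) preincubated 19-20 h at room temperature, then RBD with streptavidin donor and glutathione acceptor beads added in 25 mM Hepes pH 7.4, 150 mM NaCl, 5 mM MgCl2, 0.01% Triton X-100, 2% DMSO for 60-90 min. Emission 570 nm (excitation 680 nm); IC50 by 4-parameter fit. Counter-screen used biotin-AviTag-GST instead of RBD.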
Sequence of KRAS G12C and cRAF (Ras-binding domain) interaction (P01116 other isoform, or with tags, fused parts or gaps G12C/C51S/C80L/C118S): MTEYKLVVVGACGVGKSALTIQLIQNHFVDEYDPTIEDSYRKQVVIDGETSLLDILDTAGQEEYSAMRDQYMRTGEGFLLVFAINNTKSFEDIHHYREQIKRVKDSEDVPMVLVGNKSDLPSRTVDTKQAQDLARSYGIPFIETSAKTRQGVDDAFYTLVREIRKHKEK
On the technique in general: In Alpha technology, singlet oxygen from a donor bead excites a nearby acceptor bead.
In general, IC50 refers to the concentration that inhibits the measured activity by half. Turning to `CN(CC1CN(C(=O)/C=C/CN2CCOCC2)C1)c1nc(OC[C@@]23CCCN2C[C@H](F)C3)nc2c(F)c(-c3cccc4cccc(Cl)c34)ncc12` [Example 89, (E)-1-(3-(((7-(8-chloronaphthalen-1-yl)-8-fluoro-2-(((2R,7aS)-2-fluorotetrahydro-1H-pyrrolizin-7a(5H)-yl)methoxy)pyrido[4,3-d]pyrimidin-4-yl)(methyl)amino)methyl)azetidin-1-yl)-4-morpholinobut-2-en-1-one], the IC50 was 10 to 100 nM.

With `CN(c1nc(OC[C@@]23CCCN2C[C@H](F)C3)nc2c(F)c(-c3cccc4cccc(Cl)c34)ncc12)[C@@H]1CCN(C(=O)/C=C/CN2CCOCC2)C1` [Example 90, (E)-1-((R)-3-((7-(8-chloronaphthalen-1-yl)-8-fluoro-2-(((2R,7aS)-2-fluorohexahydro-1H-pyrrolizin-7a-yl)methoxy)pyrido[4,3-d]pyrimidin-4-yl)(methyl)amino)pyrrolidin-1-yl)-4-morpholinobut-2-en-1-one], the IC50 lay in the range of 10 to 100 nM.

Regarding `CN(CC1CN(C(=O)C#CCN2CCOCC2)C1)c1nc(OC[C@@]23CCCN2C[C@H](F)C3)nc2c(F)c(-c3cccc4cccc(Cl)c34)ncc12` [Example 91, 1-(3-(((7-(8-chloronaphthalen-1-yl)-8-fluoro-2-(((2R,7aS)-2-fluorotetrahydro-1H-pyrrolizin-7a(5H)-yl)methoxy)pyrido[4,3-d]pyrimidin-4-yl)(methyl)amino)methyl)azetidin-1-yl)-4-morpholinobut-2-yn-1-one], the IC50 lay within 100 to 500 nM.

`CN(c1nc(OC[C@@]23CCCN2C[C@H](F)C3)nc2c(F)c(-c3cccc4cccc(Cl)c34)ncc12)[C@@H]1CCN(C(=O)C#CCN2CCOCC2)C1` [Example 92, 1-((R)-3-((7-(8-chloronaphthalen-1-yl)-8-fluoro-2-(((2R,7aS)-2-fluorohexahydro-1H-pyrrolizin-7a-yl)methoxy)pyrido[4,3-d]pyrimidin-4-yl)(methyl)amino)pyrrolidin-1-yl)-4-morpholinobut-2-yn-1-one]: the IC50 is over 500 nM.

`CN(c1nc(OC[C@@]23CCCN2C[C@H](F)C3)nc2c(F)c(-c3cccc4cccc(Cl)c34)ncc12)[C@@H]1CCN(C(=O)/C=C/c2nc(C3(C)COC3)no2)C1` [Example 95, (E)-1-((R)-3-((7-(8-chloronaphthalen-1-yl)-8-fluoro-2-(((2R,7aS)-2-fluorotetrahydro-1H-pyrrolizin-7a(5H)-yl)methoxy)pyrido[4,3-d]pyrimidin-4-yl)(methyl)amino)pyrrolidin-1-yl)-3-(3-(3-methyloxetan-3-yl)-1,2,4-oxadiazol-5-yl)prop-2-en-1-one]: the IC50 was under 10 nM.

For the compound `CN(c1nc(OC[C@@]23CCCN2C[C@H](F)C3)nc2c(F)c(-c3cccc4ccc(F)c(Cl)c34)ncc12)[C@@H]1CCN(C(=O)/C=C/CN2CCOCC2)C1` [Example 96, (E)-1-((R)-3-((7-(8-chloro-7-fluoronaphthalen-1-yl)-8-fluoro-2-(((2R,7aS)-2-fluorotetrahydro-1H-pyrrolizin-7a(5H)-yl)methoxy)pyrido[4,3-d]pyrimidin-4-yl)(methyl)amino)pyrrolidin-1-yl)-4-morpholinobut-2-en-1-one], the IC50 was 100 to 500 nM.

Regarding `C=CC(=O)N1CC(CN(C)c2nc(OC[C@@]34CCCN3C[C@H](F)C4)nc3c(F)c(-c4cc(O)cc5cccc(Cl)c45)ncc23)C1` [Example 97, 1-(3-(((7-(8-chloro-3-hydroxynaphthalen-1-yl)-8-fluoro-2-(((2R,7aS)-2-fluorotetrahydro-1H-pyrrolizin-7a(5H)-yl)methoxy)pyrido[4,3-d]pyrimidin-4-yl)(methyl)amino)methyl)azetidin-1-yl)prop-2-en-1-one], the IC50 was under 10 nM.
